Results from patent US20220031636A1, “COMPOUNDS THAT ENHANCE THE ACTION OF METFORMIN” (SOCIETE DES PRODUiTS NESTLE S.A., priority 2018, published 2022).
Entries after “also recorded” stand apart in the source; their conditions may differ.

Legend:
primary hepatocytes = test: Lipogenesis in primary hepatocytes ([1-14C]-acetate incorporation into fatty acids); assay type: cell-based; conditions: low/non-saturating concentration, 1 h at 37 C
Procedure: Hepatocyte isolation: The liver was first perfused with 50 ml perfusion buffer (Krebs-Hepes buffer with […] EDTA), followed with 50 ml collagenase A buffer (Krebs-Hepes buffer with 5 mM CaCl2) and 0.5 mg/ml collagenase). After passage through a 100 μm mesh, the cell solution was washed several times with cold media and finally the cell culture pellet was resuspended in culture medium (medium 199 (M199)+GlutaMAX, 100 U/ml penicillin G, and 100 μg/ml streptomycin, 0.1% (wt/vol) BSA, 10% FCS, 10 nM insulin, 200 nM triiodothyronine and 500 nM dexamethasone). Hepatocytes were left to attach (3-4 h) and cultured overnight in M199 supplemented with antibiotics and 100 nM dexamethasone. Cells were used for experiments the following morning.
For lipogenesis measurements in primary hepatocytes, cells were seeded at 600 K cells per well in a 6-well plate overnight. Media was replaced with fresh M199 media alone for 2 hours prior to incubation with varying concentrations of Lusianthridin or compound 1 for 1 h at 37 C, in the presence of [1-^14C]-acetate. The incorporation of [^14C] into fatty acids was determined in the lower organic layer after separation from the aqueous phase.
Lipogenesis is controlled by the AMPK substrate ACC, and phosphorylation and inhibition of ACC by AMPK, leads to a decrease in lipogenesis. Lipogenesis was measured in primary hepatocytes by determining the incorporation of ^14C-labelled acetate into fatty acids.
Lipogenesis was monitored in the presence or absence of a low/non-saturating concentration of Lusianthridin or metformin for 1 h at 37 C. Furthermore, cells were incubated in the presence of both of these compounds.

[1] = molecular target: T1, bacterially-expressed AMPKα2β1γ1 (Homo sapiens, UniProt P54619+P54646+Q9Y478); test: HTRF-KinEASE kinase assay of phosphorylated AMPK heterotrimer with AMP and fixed concentrations of Lusianthridin; assay type: biochemical
T1 construct: His; made in house
Procedure: The AMPK heterotrimers were expressed in bacteria and purified through the His-α subunit by nickel purification, further purified through gel filtration and finally phosphorylated by incubation with CaMKKβ. This phosphorylated AMPK was incubated with varying concentrations of AMP for 30 mins using substrate and reagents from the HTRF-KinEASE Cisbio assay kit (STK S1 Kit). Phosphorylation of the substrate was measured by incubating with donor and acceptor antibodies for 2 h at room temperature as per the manufacturer's protocol (and Coulerie et al., (2016), see below) and phosphorylated peptide detected by performing HTRF.

T1 sequence (P54646 whole entry): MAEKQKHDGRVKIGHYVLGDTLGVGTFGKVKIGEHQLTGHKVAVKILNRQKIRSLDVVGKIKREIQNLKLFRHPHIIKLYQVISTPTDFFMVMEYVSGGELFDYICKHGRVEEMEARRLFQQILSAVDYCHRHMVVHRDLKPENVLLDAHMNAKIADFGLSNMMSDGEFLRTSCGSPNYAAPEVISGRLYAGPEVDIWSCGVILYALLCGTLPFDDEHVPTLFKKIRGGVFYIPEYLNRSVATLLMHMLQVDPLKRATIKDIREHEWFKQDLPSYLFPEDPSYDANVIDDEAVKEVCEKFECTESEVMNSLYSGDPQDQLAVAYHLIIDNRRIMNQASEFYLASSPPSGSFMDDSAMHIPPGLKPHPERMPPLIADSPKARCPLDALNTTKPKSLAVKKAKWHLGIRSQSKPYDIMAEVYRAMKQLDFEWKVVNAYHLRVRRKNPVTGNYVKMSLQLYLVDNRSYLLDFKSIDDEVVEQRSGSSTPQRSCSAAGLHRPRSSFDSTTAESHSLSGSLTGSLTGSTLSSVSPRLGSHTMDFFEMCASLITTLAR
T1 sequence (Q9Y478 whole entry): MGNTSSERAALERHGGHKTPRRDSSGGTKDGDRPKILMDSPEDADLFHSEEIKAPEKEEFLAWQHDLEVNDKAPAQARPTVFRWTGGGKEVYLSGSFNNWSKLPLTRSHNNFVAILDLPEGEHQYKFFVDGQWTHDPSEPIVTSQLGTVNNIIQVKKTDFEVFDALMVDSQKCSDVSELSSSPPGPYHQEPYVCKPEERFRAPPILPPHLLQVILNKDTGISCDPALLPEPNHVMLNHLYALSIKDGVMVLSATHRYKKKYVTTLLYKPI
T1 sequence (P54619 whole entry): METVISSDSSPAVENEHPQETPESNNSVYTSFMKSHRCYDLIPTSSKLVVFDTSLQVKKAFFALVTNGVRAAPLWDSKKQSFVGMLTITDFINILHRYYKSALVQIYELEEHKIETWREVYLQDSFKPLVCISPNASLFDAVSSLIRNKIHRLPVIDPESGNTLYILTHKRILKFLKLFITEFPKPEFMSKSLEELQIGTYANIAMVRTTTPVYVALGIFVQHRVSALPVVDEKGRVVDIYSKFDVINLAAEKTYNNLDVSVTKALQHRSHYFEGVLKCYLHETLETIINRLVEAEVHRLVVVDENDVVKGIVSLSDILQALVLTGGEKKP

Compound	inhibition of lipogenesis, compound alone (% lipogenesis compared to control untreated cells) (primary hepatocytes)	activation of AMPK in combination with AMP ([1]; fixed concentrations of Lusianthridin plus varying AMP)	AMPK activity (HTRF 665 nm/620 nm ratio) ([1]; AMP alone, varying concentrations, 30 mins)	inhibition of lipogenesis, compound alone (% lipogenesis compared to control untreated cells) (primary hepatocytes; listed as metformin)
COc1cc(O)c2c(c1)CCc1cc(O)ccc1-2 [Lusianthridin, 7-Methoxy-9,10-dihydrophenanthrene-2,5-diol]	inhibition of lipogenesis; also recorded: able to inhibit lipogenesis	additive activation of AMPK; also recorded: Additive Effect on AMP Activation		
Nc1ncnc2c1ncn2[C@@H]1O[C@H](COP(=O)(O)O)[C@@H](O)[C@H]1O [AMP, reference compound]			dose-dependent increase in AMPK activity	
CN(C)C(=N)N=C(N)N [Metformin]	inhibition of lipogenesis			able to inhibit lipogenesis
